# Data as given in PMC8040040 (ACS Medicinal Chemistry Letters, 2021).
# Entries after “also recorded” stand apart in the source; their conditions may differ.
# How the values were obtained:
# [1] = target: T1, RORγt Cys320Ala mutant (Homo sapiens, UniProt P51449, C320A); assay: Ligation to RORγt Cys320Ala mutant, Q-TOF MS; format: binding
# T1 sequence (P51449 265-507 C320A): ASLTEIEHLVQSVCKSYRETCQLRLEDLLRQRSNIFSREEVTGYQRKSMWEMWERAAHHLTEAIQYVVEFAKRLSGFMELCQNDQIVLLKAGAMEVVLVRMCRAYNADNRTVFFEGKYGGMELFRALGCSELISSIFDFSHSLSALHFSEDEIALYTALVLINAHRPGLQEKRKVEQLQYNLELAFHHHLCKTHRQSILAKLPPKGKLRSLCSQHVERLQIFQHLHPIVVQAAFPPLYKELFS
# [2] = target: T2, RORγt LBD (Homo sapiens, UniProt P51449); assay: TR-FRET coactivator recruitment assay, dose-response of covalent probes; format: biochemical; details: TR-FRET dose-response curve plateau
# T2 sequence (P51449 265-518): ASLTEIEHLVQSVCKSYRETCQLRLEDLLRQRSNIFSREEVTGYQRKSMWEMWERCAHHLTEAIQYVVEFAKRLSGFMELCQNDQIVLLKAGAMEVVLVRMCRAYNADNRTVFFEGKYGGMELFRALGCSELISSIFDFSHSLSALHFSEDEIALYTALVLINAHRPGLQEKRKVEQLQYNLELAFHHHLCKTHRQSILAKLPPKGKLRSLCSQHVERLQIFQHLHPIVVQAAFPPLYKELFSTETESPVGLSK
# [3] = target: T3, ligated RORγt (covalent orthosteric probe at Cys320) (Homo sapiens, UniProt P51449); format: biochemical
# T3 sequence (P51449 265-518): T2 sequence (P51449 265-518)
# [4] = target: T4, PPARγ (Homo sapiens, UniProt P37231); assay: Ligation; format: binding
# T4 sequence (P37231 1-505): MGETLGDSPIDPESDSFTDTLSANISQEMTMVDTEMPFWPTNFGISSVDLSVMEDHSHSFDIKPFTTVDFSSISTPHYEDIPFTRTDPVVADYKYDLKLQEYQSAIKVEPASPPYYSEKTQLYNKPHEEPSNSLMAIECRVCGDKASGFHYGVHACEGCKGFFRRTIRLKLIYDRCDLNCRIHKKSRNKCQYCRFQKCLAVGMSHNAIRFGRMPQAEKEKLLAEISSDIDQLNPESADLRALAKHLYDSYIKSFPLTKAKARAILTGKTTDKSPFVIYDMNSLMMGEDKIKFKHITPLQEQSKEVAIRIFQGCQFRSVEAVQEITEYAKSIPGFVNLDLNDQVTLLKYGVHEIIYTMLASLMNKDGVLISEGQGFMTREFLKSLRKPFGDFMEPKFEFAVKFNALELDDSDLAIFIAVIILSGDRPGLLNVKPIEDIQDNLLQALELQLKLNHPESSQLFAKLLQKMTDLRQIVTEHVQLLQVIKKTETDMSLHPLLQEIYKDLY
Structure (SMILES),occlusion of the orthosteric site by the ligated probe [3],Profile (full/partial inverse agonistic character) [2],other results
O=C(Nc1ccccc1)c1cc([N+](=O)[O-])ccc1Cl [Compound 1],occlusion of the orthosteric binding site,,Ligation to RORγt Cys320Ala mutant [1]: No ligation; Profile (full/partial inverse agonistic character) ([2]; listed as 1 GW9662): Full inv. ago.; Profile (full/partial inverse agonistic character) ([2]; listed as GW9662): full inverse agonist
CNC(=O)c1cc([N+](=O)[O-])ccc1Cl [Compound 2],,,Ligation to PPARγ [4]: fully ligate
Cc1ccccc1NC(=O)c1cc([N+](=O)[O-])ccc1Cl [Compound 9],Clear occlusion of the orthosteric site,partial inverse agonistic behavior; also recorded: Partial inv. ago,
O=C(Nc1ccsc1)c1cc([N+](=O)[O-])ccc1Cl [Compound 11],,full inverse agonistic behavior; also recorded: Full inv. ago,
